Test results: US20090202518A1, “Treatment of sepsis and inflammation with alpha2A Adrenergic antagonists” (The Feinstein Institute of Medical Research, priority 2005, published 2009)
Entries after “also recorded” stand apart in the source; their conditions may differ.

Assays:
[1] = test system: male rats with sepsis induced by cecal ligation and puncture (CLP); experiment: Cecal ligation and puncture (CLP) model of sepsis in rats; assay type: in vivo, rat
Description: Sepsis was induced in male rats by cecal ligation and puncture (CLP). The CLP model of sepsis has been used extensively as a reliable model of the pathophysiologic and immunologic alterations in human sepsis.
BRL-44408 maleate (2.5 mg/kg BW) was administered intravenously at the time of CLP. Twenty hours after CLP, the rats were sacrificed and blood and liver samples were collected. Serum levels of TNF-α, liver enzymes (i.e., AST and ALT), lactate and creatinine were measured. Gene expression of TNF-α in the liver was analyzed. In additional groups of animals, the necrotic cecum was excised at 20 h post-CLP and the 10-day survival was recorded.

Kupffer cells (KCs) = experiment: TNF-α release from cultured Kupffer cells; assay type: cell-based
Source text: The nervous system regulates the inflammatory response in real time. Our previous studies have shown that the sympathetic neurotransmitter, norepinephrine (NE), increases TNF-α release via activation of α2A-adrenoceptor (α2A-AR) on Kupffer cells (KCs). In cultured KCs, NE increases the release of TNF-α by 3.4-fold and a specific antagonist for α2A-AR, BRL-44408 maleate, reduces TNF-α secretion by 51%. However, it remains unknown whether in vivo administration of α2A-AR antagonists in sepsis is beneficial.

[2] = 2.5 mg/kg BW intravenously at the time of CLP, 20 h after CLP, means±SE, n = 6/group

Compound: CC1c2ccccc2CN1CC1=NCCN1.O=C(O)/C=C\C(=O)O (stereo not drawn) [BRL-44408 maleate]
- ALT (serum level) [1, 2]: 20.5 ± 4.5 IU/L
- AST (serum level) [1, 2]: 20.9 ± 5.3 IU/L
- Creatinine (serum level) [1, 2]: 1.1 ± 0.2 mg/dL
- Lactate (serum level) [1, 2]: 20.6 ± 1.9 mg/dL
- TNF-α (serum level) [1, 2]: 91.8 ± 8.1 pg/mL
- TNF-α/G3PDH (mRNA) ([1]; liver gene expression, 2.5 mg/kg BW intravenously at the time of CLP, 20 h after CLP, means±SE, n = 6/group): 0.5 ± 0.1
- 10-day survival / mortality ([1]; necrotic cecum excised at 20 h post-CLP, FIG. 1): increased survival; also recorded: reduced mortality
- reduction of TNF-α secretion (Kupffer cells (KCs)): 51%

Compound: NC[C@H](O)c1ccc(O)c(O)c1 [NE, norepinephrine]
- increase of the release of TNF-α (Kupffer cells (KCs)): 3.4 fold
